Our source for the IC50 values is patent US20130045939A1, “FATTY ACID MACROLIDE DERIVATIVES AND THEIR USES” (CATABASIS PHARMACEUTICALS, INC., priority 2010, published 2013).

This experiment has as its system NF-κB. Kind of experiment: NF-κB luciferase reporter assay in LPS-stimulated RAW 264.7 macrophages. The format is cell-based. The note with it: Mus musculus, RAW264.7; RAW 264.7 cells stably expressing 3× NFκB response element luciferase reporter; 2 hour pretreatment, 200 ng/ml LPS for 3 hours; 6 dose point titrations in triplicate. The method, then:
RAW 264.7 cells stably expressing a 3× NFκB response element-drive luciferase reporter were seeded into 96 well plates in sera-free medium (Optimen) 18 hours prior to compound application. Compounds of the invention were prepared by first making 100 mM stock solutions in EtOH. Stock solutions were then diluted 1:100 in low LPS FBS (Gemini BenchMark 100-106), mixed vigorously and allowed to incubate at room temperature for 30 minutes. 1:2 serial dilutions were then made in FBS supplemented with 1% EtOH, mixed vigorously, and again allowed to incubate at room temperature for 30 minutes before adding to RAW 264.7 reporter cells (final concentrations: 10% FBS, 100 uM highest compound dilution, 0.1% EtOH) for a 2 hour pretreatment prior to stimulation with LPS. Cells were then stimulated with 200 ng/ml LPS or vehicle control for 3 hours in the presence of the compounds of the invention. A set of six vehicles was left unstimulated with LPS in order to measure the assay floor. […] After the 3 h incubation period with LPS, cell viability was measured by reading fluorescence (excitation 550 nm, emission 595 nm) with a Perkin Elmer Victor V plate reader. […] Luciferase activity was measured with the Perkin Elmer Victor V plate reader. NF-κB activity was expressed as a percent of the vehicle control wells (stimulated with LPS). […]
For orientation: Reporter assays use an easily measured gene product as a stand-in for the process of interest.

Take `CC/C=C\C/C=C\C/C=C\C/C=C\C/C=C\C/C=C\CCC(=O)N1C[C@H](C)C[C@@](C)(O)[C@H](O)[C@@H](C)[C@H](O)[C@@H](C)C(=O)O[C@H](CC)[C@@](C)(O)[C@H](O)[C@H]1C` [Ia-3, (2R,3S,4R,5R,8R,10R,11R,12S,13S,14R)-6-((4Z,7Z,10Z,13Z,16Z,19Z)-docosa-4,7,10,13,16,19-hexaenoyl)-2-ethyl-3,4,10,11,13-pentahydroxy-3,5,8,10,12,14-hexamethyl-1-oxa-6-azacyclopentadecan-15-one]: the 50% inhibitory concentration (IC50) (usually the concentration that gives 50% inhibition) came to 18 µM.
